Read-outs that look alike come from different tables or passages of the source.

Results on eight molecules are retold here after patent publication US9527885B2, “Hepatitis C virus inhibitors” (BRISTOL-MYERS SQUIBB COMPANY, priority 2011, dated 2016).

The test system of assay [1] is HCV genotype 1a (H77 strain) replicon in HUH-7 cells. As to the kind of experiment: HCV replicon luciferase reporter assay, genotype 1a. Particulars: Hepatitis C virus, Huh-7, 72 h, 3 days incubation, read-out: LE_1a (EC50, range). In kind it is cell-based. An excerpt: (§1) An HCV replicon whole cell system was established as described by Lohmann V, Korner F, Koch J, Herian U, Theilmann L, Bartenschlager R., Science 285(5424):110-3 (1999) and modified to introduce a luciferase reporter, as first described by Krieger et al (Krieger N, Lohmann V, and Bartenschlager R, J. Virol. 75(10):4614-4624 (2001)). CDNA encoding a humanized form of the Renilla luciferase gene and a linker sequence fused directly to the 3′-end of the luciferase gene were introduced into the replicon construct using an Asc1 restriction site located in core, directly upstream of the neomycin marker gene. The adaptive mutation at position 1179 (serine to isoleucine) was also introduced (Blight K J, Kolykhalov, A A, Rice, C M, Science 290(5498):1972-1974). A stable cell line constitutively expressing this HCV replicon construct was generated by first linearizing plasmid DNAs with ScaI. RNA transcripts were synthesized in vitro using the T7 MegaScript transcription kit (Ambion, Austin, Tex.) according to manufacturer's directions. In vitro transcripts of the cDNA were transfected into the human hepatoma cell line, HUH-7. […] Resulting cell lines were characterized for positive and negative strand RNA production and protein production over time.
A stable HCV replicon luciferase reporter cell line representing the genotype 1a H77 strain (Yanagi M, Purcell R H, Emerson S U, et al. Transcripts from a single full-length cDNA clone of hepatitis C virus are infectious when directly transfected into the liver of a chimpanzee. Proc Natl Acad Sci USA 1997; 94(16):8738-8743) was generated as described previously for the genotype 1b (Con1) replicon luciferase cell line. The replicon construct was modified by introducing mutations were introduced into the genes encoding the NS3 helicase domain (proline replaced by leucine at position 1496) and NS5A (serine to isoleucine at position 2204) to improve replication in cell culture.
(§2) HCV replicon luciferase assays were developed to monitor the inhibitory effects of compounds described in the disclosure on HCV genotypes 1a and 1b viral replication. HUH-7 cells, constitutively expressing the HCV replicon, were grown in Dulbecco's Modified Eagle Media (DMEM) (Gibco-BRL) containing 10% Fetal calf serum (FCS) (Sigma) and 1 mg/mL G418 (Gibco-BRL). Compounds were serially diluted 3 folds in DMSO for a twenty-point titration and subsequently transferred to sterile 384-well tissue-culture treated plates (Corning cat #3571). The plates were then seeded with 50 μL of cells at a density of 3.0×10^3 cells/well in DMEM containing 4% FCS (final DMSO concentration at 0.5%). After 3 days incubation at 37° C., cells were analyzed for Renilla Luciferase activity using the EnduRen as substrate (Promega cat #E6485). The EnduRen substrate was diluted in DMEM and then added to the plates to a final concentration of 7.5 μM. The plates were incubated for 2 hrs at 37° C. and then read immediately for 30 seconds with Viewlux Imager (PerkinElmer) using a luminescence program. To assess cytotoxicity of compounds, CC50 values were generated by multiplexing the EnduRen-containing plates with Cell Titer-Blue (Promega, cat # G8082). Cell-Titer Blue (3 μL) was added to each well and incubated for 8 hrs at 37° C. The fluorescence signal from each well was read, with an excitation wavelength at 525/10 nm and an emission wavelength of 598/10 nm, using the Viewlux Imager.
(§3) The EC50 values for compounds were calculated by using a four-parameter logistic equation: y=A+((B−A)/(1+((C/x)^D))), where A and B denotes minimal and maximal % inhibition, respectively, C is the EC50, D is the hill slope and x represents compound concentration.

The test system of assay [2] is HCV genotype 1b (Con1) replicon in HUH-7 cells. As to the kind of experiment: HCV replicon luciferase reporter assay, genotype 1b. The class given is cell-based. Particulars: Hepatitis C virus, 72 h, 3 days incubation, read-out: LE_1b (EC50, range).
Source text: as §1, with “time. […]” for “time.”
as §2, §3

[3] abbreviates: HCV genotype 1a replicon luciferase, class symbols.
[4] abbreviates: HCV genotype 1b replicon luciferase, class symbols.
The mark [5] stands for this setting: HCV genotype 1a replicon luciferase, range class.
Setting [6] is: HCV genotype 1b replicon luciferase, range class.
Setting [7] is: HCV genotype 1a replicon luciferase reporter, range class.
Setting [8] is: HCV genotype 1b replicon luciferase reporter, range class.

For `CCOc1cnc(O[C@@H]2C[C@H]3C(=O)N[C@]4(C(=O)NS(=O)(=O)C5(C)CC5)C[C@H]4/C=C\CC[C@@H](C)C[C@@H](C)[C@H](NC(=O)OC(C)(C)C(C)(F)F)C(=O)N3C2)c2ccccc12` [Compound 5113, 3,3-difluoro-2-methylbutan-2-yl ((2R,6S,7R,9R,13 aS,14aR,16aS,Z)-2-((4-ethoxyisoquinolin-1-yl)oxy)-7,9-dimethyl-14a-(((1-methylcyclopropyl)sulfonyl)carbamoyl)-5,16-dioxo-1,2,3,5,6,7,8,9,10,11,13a,14,14a,15,16,16a-hexadecahydrocyclopropa[e]pyrrolo[1,2-a][1,4]diazacyclopentadecin-6-yl)carbamate], the EC50 in assay [1] (setting [3]) and in assay [2] (setting [4]) was less than 5.46 nM each time.

In the case of `COc1ccc2c(O[C@@H]3C[C@H]4C(=O)N[C@]5(C(=O)NS(=O)(=O)C6CC6)C[C@H]5/C=C\CC[C@@H](C)C[C@@H](C)[C@H](NC(=O)O[C@@H]5C[C@@H]6C[C@@H]6C5)C(=O)N4C3)nc(-c3ccc(OC(C)C)nc3)cc2c1` [Compound 5219, (1R,3r,5S)-bicyclo[3.1.0]hexan-3-yl ((2R,6S,7R,9R,13aS,14aR,16aS,Z)-14a-((cyclopropylsulfonyl)carbamoyl)-2-((3-(6-isopropoxypyridin-3-yl)-6-methoxyisoquinolin-1-yl)oxy)-7,9-dimethyl-5,16-dioxo-1,2,3,5,6,7,8,9,10,11,13a,14,14a,15,16,16a-hexadecahydrocyclopropa[e]pyrrolo[1,2-a][1,4]diazacyclopentadecin-6-yl)carbamate], the concentration giving a half-maximal response (EC50) in assay [1] (setting [5]) and in assay [2] (setting [6]) was less than 5.46 nM each time.

Take `COc1ccc2c(O[C@@H]3C[C@H]4C(=O)N[C@]5(C(=O)NS(=O)(=O)C6(CF)CC6)C[C@H]5/C=C\CC[C@H](C)C[C@@H](C)[C@H](NC(=O)OC(C)(C)C(F)(F)F)C(=O)N4C3)nc(N(C)C)cc2c1` [Compound 3126, 1,1,1-trifluoro-2-methylpropan-2-yl ((2R,6S,7R,9S,13aS,14aR,16aS,Z)-2-((3-(dimethylamino)-6-methoxyisoquinolin-1-yl)oxy)-14a-(((1-(fluoromethyl)cyclopropyl)sulfonyl)carbamoyl)-7,9-dimethyl-5,16-dioxo-1,2,3,5,6,7,8,9,10,11,13a,14,14a,15,16,16a-hexadecahydrocyclopropa[e]pyrrolo[1,2-a][1,4]diazacyclopentadecin-6-yl)carbamate]: the EC50 in assay [1] (setting [7]) and in assay [2] (setting [8]) was 4.82 to 103 nM throughout.

On to `C[C@@H]1CC/C=C\[C@@H]2C[C@@]2(C(=O)NS(=O)(=O)C2(C)CC2)NC(=O)[C@@H]2C[C@@H](Oc3nccc4c(N5CCOCC5)cccc34)CN2C(=O)[C@@H](NC(=O)OC(C)(C)C(F)(F)F)[C@H](C)C1` [Compound 5124, 1,1,1-trifluoro-2-methylpropan-2-yl ((2R,6S,7R,9R,13aS,14aR,16aS,Z)-7,9-dimethyl-14a-(((1-methylcyclopropyl)sulfonyl)carbamoyl)-2-((5-morpholinoisoquinolin-1-yl)oxy)-5,16-dioxo-1,2,3,5,6,7,8,9,10,11,13a,14,14a,15,16,16a-hexadecahydrocyclopropa[e]pyrrolo[1,2-a][1,4]diazacyclopentadecin-6-yl)carbamate], for which the 50% effective concentration (EC50) in assay [1] (setting [3]) and in assay [2] (setting [4]) was less than 5.46 nM throughout.

On to `COc1ccc2c(O[C@@H]3C[C@H]4C(=O)N[C@]5(C(=O)NS(=O)(=O)C6CC6)C[C@H]5/C=C\CC[C@@H](C)C[C@@H](C)[C@H](NC(=O)O[C@@H]5C[C@@H]6C[C@@H]6C5)C(=O)N4C3)nc(-c3ccc(OC(C)C)cn3)cc2c1` [Compound 5209, (1R,3r,5S)-bicyclo[3.1.0]hexan-3-yl ((2R,6S,7R,9R,13aS,14aR,16aS,Z)-14a-((cyclopropylsulfonyl)carbamoyl)-2-((3-(5-isopropoxypyridin-2-yl)-6-methoxyisoquinolin-1-yl)oxy)-7,9-dimethyl-5,16-dioxo-1,2,3,5,6,7,8,9,10,11,13a,14,14a,15,16,16a-hexadecahydrocyclopropa[e]pyrrolo[1,2-a][1,4]diazacyclopentadecin-6-yl)carbamate], for which the concentration for a half-maximal effect (EC50) in assay [1] (setting [5]) and in assay [2] (setting [6]) was less than 5.46 nM in each case.

Turning to `C[C@@H]1CCC[C@H](O)[C@@H]2C[C@@]2(C(=O)NS(=O)(=O)C2(C)CC2)NC(=O)[C@@H]2C[C@@H](Oc3ncc(OC4CC4)c4ccccc34)CN2C(=O)[C@@H](NC(=O)OC(C)(C)C(F)(F)F)[C@H](C)C1` [Compound 2002, 1,1,1-trifluoro-2-methylpropan-2-yl ((2R,6S,7R,9R,13S,13aR,14aR,16aS)-2-((4-cyclopropoxyisoquinolin-1-yl)oxy)-13-hydroxy-7,9-dimethyl-14a-(((1-methylcyclopropyl)sulfonyl)carbamoyl)-5,16-dioxooctadecahydrocyclopropa[e]pyrrolo[1,2-a][1,4]diazacyclopentadecin-6-yl)carbamate], the EC50 in assay [1] (setting [7]) and in assay [2] (setting [8]) was 4.82 to 103 nM each time.

Turning to `[2H]C([2H])([2H])C(C)(OC(=O)N[C@@H]1C(=O)N2C[C@H](Oc3nccc4cc(OC)ccc34)C[C@H]2C(=O)N[C@]2(C(=O)NS(=O)(=O)C3(C)CC3)C[C@H]2/C=C\CC[C@@H](C)C[C@H]1C)C([2H])([2H])[2H]` [Compound 5177, 1,1,1,3,3,3-hexadeutero-2-methylpropan-2-yl ((2R,6S,7R,9R,13aS,14aR,16aS,Z)-2-((6-methoxyisoquinolin-1-yl)oxy)-7,9-dimethyl-14a-(((1-methylcyclopropyl)sulfonyl)carbamoyl)-5,16-dioxo-1,2,3,5,6,7,8,9,10,11,13a,14,14a,15,16,16a-hexadecahydrocyclopropa[e]pyrrolo[1,2-a][1,4]diazacyclopentadecin-6-yl)carbamate], the 50% effective concentration (EC50) in assay [1] (setting [5]) and in assay [2] (setting [6]) was less than 5.46 nM each time.

In the case of `COc1ccc2c(O[C@@H]3CC4C(=O)N[C@]5(C(=O)NS(=O)(=O)C6(F)CC6)C[C@H]5/C=C\CC[C@@H](C)C[C@@H](C)[C@H](NC(=O)C(C)(C)C)C(=O)N4C3)nccc2c1` (stereo partly shown) [Compound 4015], the EC50 in assay [1] (setting [3]) and in assay [2] (setting [4]) was less than 5.46 nM each time.

One may read the EC50 as the concentration giving half of the maximal effect.
